Experimental data reported in PubChem BioAssay AID256 (DTP/NCI, 2004).
Toxic doses and inconclusive results are not listed. Rule for the calls: active = survival T/C of 150% or more; inactive = T/C below 125% in these data.

Tested on: CD2F1 mice, L1210 leukemia ip, survival T/C
Experiment: NCI In Vivo Anticancer Drug Screen. Data for tumor model L1210 Leukemia (intraperitoneal) in CD2F1 (CDF1) mice
Conditions: endpoint: mean survival time, higher = longer survival
Outline: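 Mice carrying a transplanted tumor received test compound or vehicle alone. The value is the measurement in the treated group divided by that in the vehicle-treated control group.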

[1] = dose: 100.0 mg/kg/injection, schedule: Q01DX009 (ip), vehicle: saline with Tween-80
[2] = dose: 200.0 mg/kg/injection, schedule: Q01DX009 (ip), vehicle: saline with Tween-80

Measured: T/C

CC(=O)Nc1cccc(/C=C/c2cccc([N+](=O)[O-])c2)c1
inactive: dose: 100.0 mg/kg/injection, schedule: Q01DX001 (ip), vehicle: Klucel (hydroxypropylcellulose) (HPC) 103 % of control | dose: 200.0 mg/kg/injection, schedule: Q01DX001 (ip), vehicle: Klucel (hydroxypropylcellulose) (HPC) 93 % of control | dose: 400.0 mg/kg/injection, schedule: Q01DX001 (ip), vehicle: Klucel (hydroxypropylcellulose) (HPC) 100 % of control

O=c1oc2c(ccc3ccccc32)c(O)c1-c1cccc2ccccc12
inactive: dose: 50.0 mg/kg/injection, schedule: Q01DX009 (ip), vehicle: saline with Tween-80 103 % of control | [1] 100 % of control | [2] 93 % of control

O=C(CCN1C(=O)c2ccccc2C1=O)c1ccc(O)cc1
inactive: dose: 100.0 mg/kg/injection, schedule: Q04DX003 (ip), vehicle: saline with Tween-80 93 % of control | dose: 200.0 mg/kg/injection, schedule: Q04DX003 (ip), vehicle: saline with Tween-80 98 % of control | dose: 400.0 mg/kg/injection, schedule: Q04DX003 (ip), vehicle: saline with Tween-80 92 % of control

O=C(C[n+]1cccc2ccccc21)c1ccc([N+](=O)[O-])cc1
inactive: dose: 25.0 mg/kg/injection, schedule: Q04DX002 (ip), vehicle: saline with Tween-80 102 % of control | dose: 50.0 mg/kg/injection, schedule: Q04DX002 (ip), vehicle: saline with Tween-80 98 % of control | dose: 100.0 mg/kg/injection, schedule: Q04DX002 (ip), vehicle: saline with Tween-80 102 % of control

OC12CCCCC1(O)CCCC2 (stereo not drawn)
inactive: dose: 100.0 mg/kg/injection, schedule: Q01DX001 (ip), vehicle: saline with Tween-80 100 % of control | [1] 102 % of control | dose: 200.0 mg/kg/injection, schedule: Q01DX001 (ip), vehicle: saline with Tween-80 97 % of control | [2] 102 % of control | dose: 400.0 mg/kg/injection, schedule: Q01DX001 (ip), vehicle: saline with Tween-80 97 % of control | dose: 400.0 mg/kg/injection, schedule: Q01DX009 (ip), vehicle: saline with Tween-80 102 % of control
